Assay results from patent publication US20160083420A1, “DERIVATIVES OF DOLASTATIN 10 AND AURISTATINS” (PIERRE FABRE MEDICAMENT, priority 2013, published 2016).
Square brackets hold non-standard residues; d marks the D form. Peptide text beside a SMILES is read from it. * marks the point of attachment. Dolaproine = CO[C@@H]([C@@H]1CCCN1)[C@@H](C)C(=O)O; Dil = CC[C@H](C)[C@H](NC)[C@@H](CC(=O)O)OC; X5 = CC(C)[C@@H](C(=O)*)N(C)Cc1ccncc1

Test system: MDA-MB-231 (breast adenocarcinoma—ATCC HTB-26)
Assay: ATPlite antiproliferative assay on MDA-MB-231 cells
Type: cell-based
Conditions: Homo sapiens, MDA-MB-231, 72 h, MDA-MB-231, 72 h drug treatment, values in text, read-out: EC50, antiproliferative activity on the MDA-MB-231 cell line
Procedure: A549 (Non Small Cell Lung Cancer—ATCC CCL-185) and MDA-MB-231 (breast adenocarcinoma—ATCC HTB-26) cells were cultured in Minimum Essential Medium Eagle (MEM) with 5% fetal calf serum (FCS) and Dulbecco's modified Eagle Medium (DMEM) with 10% FCS respectively. MCF7 (breast ductal carcinoma—ATCC HTB-22) and SN-12C (kidney carcinoma—ATCC) cells were maintained in RPMI1640 medium (without phenol red for MCF7 cells) containing 10% FCS. All the media were supplemented with fungizone (1.25 μg/mL) and penicillin-streptomycin (100 U/100 μg/mL). Cells were cultured under standard conditions in an incubator at 37° C., 5% CO2 and 95% atmospheric humidity.
Compounds according to the invention were investigated for their antiproliferative activity using an ATPlite proliferation assay (Perkin Elmer, Villebon sur Yvette, France) on a comprehensive panel of 4 cell lines. […] On day 4, cell viability was evaluated by dosing the ATP released by viable cells. The number of viable cells was analyzed in comparison with the number of solvent treated cells. The EC50 values were determined with curve fitting analysis (non linear regression model with a sigmoidal dose response, variable hill slope coefficient), performed with the algorithm provided by the GraphPad Software (GraphPad Software Inc., CA, USA).

For `CC[C@H](C)[C@@H]([C@@H](CC(=O)N1CCC[C@H]1[C@H](OC)[C@@H](C)C(=O)N[C@@H](Cc1ccccc1)C(=O)OC)OC)N(C)C(=O)[C@@H](NC(=O)[C@H](C(C)C)N(C)Cc1ccncc1)C(C)C` [Example 3] (X5-V[Dil][Dolaproine]F-OMe), the EC50 was 0.41 nM.
